Assay results published in PMC8781960, “Structural Basis of 2-Phenylamino-4-phenoxyquinoline Derivatives as Potent HIV-1 Non-Nucleoside Reverse Transcriptase Inhibitors” (Molecules, 2022).
Marks after values point to notes of the source that are not given here.

How the values were obtained:
[1] = test system: H69AR (lung cancer, multidrug resistant); assay: In vitro cytotoxicity (MTT); type: cell-based, human; conditions: 48 h; for %C percentage cytotoxicity H69AR: human, 50 µg/mL; for IC50: Homo sapiens, H69AR, mean ± standard error
[2] = test system: MRC-5 (normal embryonic lung cell); assay: In vitro cytotoxicity (MTT), normal cell line; conditions: for IC50: Homo sapiens, MRC5, 48 h, read-out: IC50 MRC-5; for %C percentage cytotoxicity MRC-5: normal cell line, at 50 µg/mL, inactive (IC50 ≥ 50 µg/mL)
Experimental: (§1) Background control wells contained the same volume as the complete culture medium. […] Samples at various concentrations were added to the microplate and incubated for another 48 h. Cell viability was determined by 3(4,5-dimethylthiazol-2-yl)-2-5-diphenyl tetrazolium bromide (MTT) assay (Sig-ma-Aldrich). The reagent was dissolved in phosphate-buffered saline at 5 mg/mL and filtered to sterilize and remove the small amount of insoluble residue present in some batches of MTT. […] Subsequently, dimethyl sulfoxide (100 µL; Merck, Germany) was added to dissolve the resulting formazan by sonication. The plates were read on a microplate reader (Molecular Devices, CA, USA) using a test wavelength of 550 nm and a reference wavelength of 650 nm. XTT assay for suspension cells was used for MOLT-3 cells.

HepG2 (hepatocarcinoma) = assay: In vitro cytotoxicity (MTT); conditions: for IC50: Homo sapiens, HepG2, 48 h, read-out: IC50 HepG2; for %C percentage cytotoxicity HepG2: at 50 µg/mL, inactive (IC50 ≥ 50 µg/mL)
Experimental: as §1

HL-60 (promyeloblast) = assay: In vitro cytotoxicity (MTT); conditions: for IC50: Homo sapiens, HL-60, 48 h, read-out: IC50 HL-60; for %C percentage cytotoxicity HL-60: at 50 µg/mL, inactive (IC50 ≥ 50 µg/mL)
Experimental: as §1

[3] = test system: MDA-MB-231 (hormone-independent breast cancer); assay: In vitro cytotoxicity (MTT); conditions: for IC50: Homo sapiens, MDA-MB-231, 48 h, read-out: IC50 MDA-MB-231; for %C percentage cytotoxicity MDA-MB-231: at 50 µg/mL, inactive (IC50 ≥ 50 µg/mL)
Experimental: as §1

S102 (Thai liver cancer) = assay: In vitro cytotoxicity (MTT); conditions: for %C percentage cytotoxicity S102: at 50 µg/mL, inactive (IC50 ≥ 50 µg/mL); for IC50: Homo sapiens, 48 h, read-out: IC50 S102
Experimental: as §1

[4] = test system: HuCCA-1 (cholangiocarcinoma); assay: In vitro cytotoxicity (MTT); conditions: for IC50: Homo sapiens, HuCC-A1, 48 h, read-out: IC50 HuCCA-1; for %C percentage cytotoxicity HuCCA-1: at 50 µg/mL, inactive (IC50 ≥ 50 µg/mL)
Experimental: as §1

[5] = test system: T47-D (hormone-dependent breast cancer); assay: In vitro cytotoxicity (MTT); conditions: for IC50: Homo sapiens, T47D, 48 h, read-out: IC50 T47-D; for %C percentage cytotoxicity T47-D: at 50 µg/mL, inactive (IC50 ≥ 50 µg/mL)
Experimental: as §1

A549 (lung carcinoma) = assay: In vitro cytotoxicity (MTT); conditions: for IC50: Homo sapiens, A549, 48 h, read-out: IC50 A549; for %C percentage cytotoxicity A549: at 50 µg/mL, inactive (IC50 ≥ 50 µg/mL)
Experimental: as §1

[6] = test system: HeLA (cervical carcinoma); assay: In vitro cytotoxicity (MTT); conditions: for IC50: Homo sapiens, HeLa, 48 h, read-out: IC50 HeLA; for %C percentage cytotoxicity HeLA: at 50 µg/mL, inactive (IC50 ≥ 50 µg/mL)
Experimental: as §1

[7] = test system: MOLT-3 (acute lymphoblastic leukemia); assay: In vitro cytotoxicity (XTT); conditions: for IC50: Homo sapiens, MOLT-3, 48 h, read-out: IC50 MOLT-3; for %C percentage cytotoxicity MOLT-3: at 50 µg/mL, inactive (IC50 ≥ 50 µg/mL)
Experimental: as §1

HIV-1 RT [8] = target: T1, HIV-1 RT (Human immunodeficiency virus type 1 group M subtype B, UniProt P03366); parameters: method as in PMID 31698495; conditions: 1 µM; previously reported values for 5a–5d; cited from earlier work
T1 construct: The reaction mixture consisted of template/primer complex, 2′-deoxy-nucleotide-5′-triphosphates (dNTPs), and RT enzyme in lysis buffer; purchased Roche Applied Science, Mannheim, Germany

HIV-1 RT [9] = target: T1, HIV-1 RT; assay: HIV-1 RT inhibition assay (Roche RT kit, colorimetric ELISA); type: biochemical; conditions: for inhibition at 1 µM: read-out: Inhibitory activities (%) against HIV-1 RT
Description: The inhibition assay of HIV-1 RT was accomplished using the template/primer hybrid poly(A) × oligo(dT)15, digoxigenin (DIG)- and biotin-labeled nucleotides, an antibody to DIG that was conjugated to peroxidase (anti-DIG-POD), and the peroxidase substrate ABTS. The quantities of DIG- and biotin-labeled dUTP incorporated into DNA represent t HIV-1 RT activity. The HIV-RT inhibition assay was implemented using an RT assay kit (Roche Applied Science, Mannheim, Germany), and the procedures for assaying RT inhibition were performed as described in the kit protocol. […] The reaction mixture consisted of template/primer complex, 2′-deoxy-nucleotide-5′-triphosphates (dNTPs), and RT enzyme in lysis buffer with or without an inhibitor. […] The biotin-labeled dNTPs that were incorporated in the template bound to streptavidin because of the presence of RT. Unbound dNTPs were washed using a wash buffer, and anti-DIG-POD was added to the MTP. The DIG-labeled dNTPs incorporated in the template bound to the anti-DIG-POD antibody. Unbound anti-DIG-POD was also washed elaborately five times using a wash buffer. Finally, the peroxide substrate (ABST) was added to the MTP. A colored reaction product emerged during the cleavage of the substrate catalyzed by […]. The absorbance of the sample was measured at the optical density (OD) at 490 nm using the MTP (enzyme-linked immunosorbent assay [ELISA]) reader. The percentage inhibitory activities of the RT inhibitors were calculated by comparing with that of the sample without an inhibitor. The resulting color intensity was directly proportional to the RT activity. Percentage inhibitory values were calculated using the following formula: Inhibition (%) = [1–(OD value with RT and inhibitor−OD value without RT and inhibitors)/(OD value without inhibitors with RT−OD value without RT and inhibitors)] × 100.

SMILES	melting point	%C percentage cytotoxicity H69AR [1]	IC50 [2]	IC50 (HepG2 (hepatocarcinoma))	IC50 (HL-60 (promyeloblast))	IC50 [3]	%C percentage cytotoxicity S102 (S102 (Thai liver cancer))	IC50 [4]	IC50 [5]	IC50 (A549 (lung carcinoma))	IC50 [6]	IC50 [7]	%C percentage cytotoxicity MRC-5 [2]	inhibition at 1 µM (HIV-1 RT [9])	%C percentage cytotoxicity T47-D [5]	%C percentage cytotoxicity HL-60 (HL-60 (promyeloblast))	further results
N#Cc1ccc(Nc2cc(Oc3ccc(C=O)cc3)c3ccccc3n2)cc1 [Compound 5a, 4-(4′-formylphenoxy)-2-(4″-cyanophenyl)-aminoquinoline]	267.1 to 268 °C	%C = 38.0 ^c	108 ± 4.7 µM	73.2 ± 7.7 µM	16.6 ± 4.7 µM	77.7 ± 5.9 µM	%C = 20.9 ^c	29.7 ± 2 µM	43 ± 5.3 µM	122 ± 4.5 µM	12.6 ± 1.3 µM	15.6 ± 3.6 µM					Inhibitory activities (%) against HIV-1 RT (HIV-1 RT [8]): 19.4 ± 1.7%
Cc1cc(C#N)cc(C)c1Oc1cc(Nc2ccc(C#N)cc2)c2ccccc2n1 [Compound 8d, 2-(2′,6′-Dimethyl-4′-cyanophenoxy)-4-(4″-cyanophenyl)-aminoquinoline]	201.3 to 202 °C	%C = 0.0 ^c			56.6 ± 4.7 µM		%C = 0.0 ^c				104 ± 4.7 µM	67.4 ± 3.1 µM	%C = 15.5 ^c	34.5 ± 2.3%	%C = 31.0 ^c		%C percentage cytotoxicity HepG2 (HepG2 (hepatocarcinoma)): %C = 32.0 ^c; %C percentage cytotoxicity MDA-MB-231 [3]: %C = 32.4 ^c; %C percentage cytotoxicity HuCCA-1 [4]: %C = 18.4 ^c; %C percentage cytotoxicity A549 (A549 (lung carcinoma)): %C = 29.1 ^c
Cc1cc(C=O)cc(C)c1Oc1cc(Nc2ccc(C#N)cn2)nc2ccccc12 [Compound 6b, 4-(2’,6’-Dimethyl-4’-formylphenoxy)-2-(5″-cyanopyridin-2″ylamino)quinoline]	275.7 to 276.5 °C	%C = 21.0 ^c		92.8 ± 11.8 µM	20.5 ± 2.1 µM	103 ± 1.9 µM		126 ± 1.8 µM		108 ± 1.2 µM	25.7 ± 0.8 µM	12.7 ± 1.1 µM	%C = 26.1 ^c	44.5 ± 2.8%	%C = 38.0 ^c		cytotoxicity toward normal embryonic lung (MRC-5) cells, in words [2]: very low cytotoxicity; IC50 (HIV-1 RT [9]): 1.93 µM; IC50 (S102 (Thai liver cancer)): 112 ± 1.8 µM
N#Cc1ccc(Oc2cc(Nc3ccc(C#N)cn3)nc3ccccc23)cc1 [Compound 6c, 4-(4′-cyanophenoxy)-2-(5″-cyanopyridin-2″ylamino)quinoline]	225.7 to 225.9 °C		69.2 ± 12.4 µM	101.7 ± 0.7 µM		66.6 ± 3 µM	%C = 44.8 ^c	22.9 ± 0.9 µM	47.1 ± 3.3 µM	14 ± 2.2 µM	67.7 ± 0.6 µM	14.1 ± 0.4 µM		27.6 ± 2.1%		%C = 9.0 ^c	IC50 [1]: 66.2 ± 2.4 µM
O=Cc1ccc(Oc2cc(-c3cc(Oc4ccc(C=O)cc4)c4ccccc4n3)nc3ccccc23)cc1 [Compound 7a, 4,4′-di-(4′-formylphenoxy)-2,2′-biquinoline]	288.7 to 289.3 °C	%C = 20.0 ^c		69.8 ± 11.8 µM		74.1 ± 5.3 µM	%C = 17.6 ^c	88.2 ± 4.4 µM	96.1 ± 3.3 µM	69.5 ± 3.3 µM	88 ± 4.3 µM	74.2 ± 6.3 µM	%C = 33.9 ^c	22.9 ± 1.2%		%C = 25.0 ^c	
Cc1cc(C=O)cc(C)c1Oc1cc(Oc2c(C)cc(C=O)cc2C)c2ccccc2n1 [Compound 4b, 2,4-di-(2′,6′-Dimethyl-4′-formylphenoxy)-quinoline]	120.5 to 121 °C		60.4 ± 2 µM	50.6 ± 1.2 µM	5.7 ± 2 µM	15.3 ± 1.6 µM		11.1 ± 0.7 µM	22.5 ± 3.3 µM	38.5 ± 1.3 µM	5.3 ± 0.2 µM	61.6 ± 0.7 µM		42.1 ± 2.5%			IC50 [1]: 30.9 ± 5.7 µM; IC50 (S102 (Thai liver cancer)): 89.4 ± 0.1 µM
N#Cc1ccc(Nc2cc(Oc3ccc(C#N)cc3)c3ccccc3n2)cc1 [Compound 5c, 4-(4′-cyanophenoxy)-2-(4″-cyanophenyl)-aminoquinoline]		%C = 26.0 ^c					%C = 0.0 ^c						%C = 12.0 ^c		%C = 45.0 ^c	%C = 2.0 ^c	%C percentage cytotoxicity HepG2 (HepG2 (hepatocarcinoma)): %C = 44.8 ^c; %C percentage cytotoxicity MDA-MB-231 [3]: %C = 38.4 ^c; %C percentage cytotoxicity HuCCA-1 [4]: %C = 23.0 ^c; %C percentage cytotoxicity A549 (A549 (lung carcinoma)): %C = 26.0 ^c; %C percentage cytotoxicity HeLA [6]: %C = 25.0 ^c; %C percentage cytotoxicity MOLT-3 [7]: %C = 6.0 ^c; Inhibitory activities (%) against HIV-1 RT (HIV-1 RT [8]): 39.7 ± 3.0%
Cc1cc(C#N)cc(C)c1Oc1cc(Oc2c(C)cc(C#N)cc2C)c2ccccc2n1 [Compound 4d, 2,4-di-(2′,6′-Dimethyl-4′-cyanophenoxy)-quinoline]	201.8 to 202.4 °C	%C = 38.0 ^c		92.2 ± 6.8 µM		92.5 ± 5 µM	%C = 31.5 ^c	83.5 ± 11.1 µM	55.2 ± 1.5 µM	55.5 ± 5.7 µM			%C = 26.9 ^c	40.3 ± 3.3%		%C = 23.0 ^c	%C percentage cytotoxicity HeLA [6]: %C = 40.0 ^c; %C percentage cytotoxicity MOLT-3 [7]: %C = 13.0 ^c
